{"source": "patent US10912819B2", "about": "“Neuroprotective peptides derived from activity-dependent neuroprotective protein for treatment of neurological diseases” (priority 2016, dated 2021)", "key": {"[1]": {"test_system": "Adnp^+/− mouse pups", "assay": "Ultrasonic vocalization (USV) of pups after dam separation", "type": "in vivo, mice", "method": "Furthermore, Auditory brain response (ABR) of 2.5 months old mice presents prolonged latency of hearing in Adnp+/− vs. Adnp+/+ females. (A) Results are presented as means±SEM. Ultrasonic vocalizations (USVs) were recorded in eight-day-old pups, subjected to daily subcutaneous injections of NAP (25 μg/ml saline) or saline (20 μl and 40 μl on postnatal days 1-4 and 5-7). The recordings were performed following dam separation according to published literature (Shu, W., et al. 2005. Proc Nati Acad Sci USA 102:9643-9648) NAP was injected as described before (Rotstein, M., et al., 2006. J Pharmacol Exp Ther 319:332-339).\nLanguage and speech deficits affect ADNP-mutated children (38, 39) and autistic children in general (51). In rodents, both speech and social communication are tested by analysis of isolation induced ultrasonic vocalizations (USVs) (52). As part of USV test, 25 μg of NAP were diluted in 1 ml saline and injected (subcutaneous) to Adnp^+/− mouse pups for 9 subsequent days (1-9 days of age) in doses of 20, 40 μl on days 1-4, 5-7 respectively (50)."}, "[2]": {"test_system": "Adnp^+/− mice", "assay": "Grip strength test", "type": "in vivo", "details": "male mice, treatment from 2 months of age, 0.5 μg NAP/mouse/day intranasal in DD, 5 weeks; p<0.05", "method": "The grip strength test measures forelimbs muscle strength using the UgoBasile 47200-Grip-Strength Meter. Each animal was tested five times and the peak force of each mouse was recorded. Data are expressed as mean±SEM."}, "[3]": {"test_system": "Adnp^+/− mice", "assay": "Odor discrimination test", "type": "in vivo", "method": "As social memory depends on olfactory function, NAP treatment was also tested in odor discrimination test. Odors were presented on a suspended cotton swab to the test mouse placed into the clean cage with fresh shavings. Each mouse was tested during three consecutive 2-min periods for each odor, with 2-min intervals between presentations. The x axis indicates the consecutive number of the odor exposure period. The time that the mouse smelled the swab was recorded (beginning whenever the animal oriented its nostrils toward the cotton swab, within 2 cm or less). (Malishkevich et al., Transl Psychiatry (2015) 5, e501; Amram et al., Mol Psychiatry. 2016 10:1467-76)."}, "[4]": {"test_system": "Foxp2", "assay": "Foxp2 mRNA expression in the tongue, quantitative real-time PCR", "type": "in vivo", "details": "4-month-old mice treated with NAP/DD, normalized to Gapdh; increased in Adnp-deficient mice", "method": "(B) Foxp2 (the language-linked gene) expression in the tongue is increased in Adnp-deficient mice and is normalized by NAP. Tongue total RNA was extracted from 4-month-old mice (treated with NAP/DD as above) and analyzed for Foxp2 and Gapdh mRNA expression by quantitative real-time PCR (n=3-7 animals per experimental group). Gapdh served as a normalizing transcript. […] Two-way ANOVA analysis was performed using SigmaPlot. Sexual dichotomy determined by t-test analysis was also observed for the increased Foxp2 expression between Adnp males and females (**p<0.01).\n(§1) Quantitative reverse transcription real time polymerase chain reaction (RT-PCR) was performed as before (18, 37)."}, "[5]": {"test_system": "Chl1", "assay": "Hippocampal Chl1 mRNA expression, quantitative real-time PCR", "type": "in vivo", "details": "7.5-month-old mice treated with NAP/CB, FIG. 8F", "method": "In females, NAP regulates genes deregulated with ADNP mutation in the hippocampus. […] Sexual dichotomy determined by t-test analysis was also observed for Akap6 and Chl1 expression between Adnp^+/− males and females (#p<0.05, ##p<0.01, ###p<0.001).\nas §1"}, "[6]": {"test_system": "schizophrenia patients", "details": "clinical study; cited from earlier work"}, "[7]": {"test_system": "individuals suffering from progressive supranuclear palsy (PSP)", "details": "30 mg twice daily, changed formulation; cited from earlier work"}, "[8]": {"test_system": "Adnp^+/− mice", "assay": "Elevated plus maze test", "type": "in vivo", "details": "male mice, 5 min, NAP new formulation (CB); NAP-treated vs Adnp^+/− p<0.001", "method": "FIG. 4. […] The relative time spent in the open/closed arms for 5 min is presented (n=9-12 per group). Data are expressed as mean±SEM. D2 calculates the exploration time of the open arms (a) and the exploration time of the closed arms (b).\nExperiments performed as we described in Malishkevich et al., 2015 (37) and Amram et al., Mol Psychiatry. 2016 October; 21(10):1467-76 (7). 3-6 month-old male mice were used, drug application (0.5 μg/5 μl/mouse) was once daily, for one month and then behavioral assays were initiated together with drug application. In experiments with the vehicle termed DD (NAP-benzalkonium), drug application was at 2 months of age and continued as above. Open field experiments (16, 17) and elevated plus maze evaluations (18) were carried out as before.\nExperiments were performed as described (18), assessing the different times spent in open arms (indicative of exploratory behavior) versus closed arms (indicative of anxious behavior) in the elevated plus maze (FIG. 4)."}, "[9]": {"test_system": "Adnp^+/− mice", "assay": "MRI diffusion tensor imaging of chronically treated brains", "type": "in vivo", "details": "NAP in CB vs CB-treated Adnp^+/− mice", "method": "MRI was performed on a 7.0 T/30 spectrometer (Bruker, Rheinstetten, Germany) using a volume coil for excitation and a rat quadrature coil for acquisition. The MRI protocols included coronal T2 and diffusion tensor imaging (DTI). T2 weighted images obtained with RARE sequence, with repetition time=3000 msec and echo time=49 msec, RARE factor 8, 4 averages, field of view of 2×2 cm, matrix dimensions of 256×256 and 24 slices of 0.5 mm thickness with no gap. The 24 coronal sections were used for volumetric analysis of the whole brain, Lateral ventricle and Hippocampus. DTI was obtained using a diffusion-weighted (DW) spin-echo echo-planar-imaging (EPI) pulse sequence with the following parameters: TR/TE=4000/25 ms, Δ/δ=10/4.5 ms, 4 EPI segments and 32 non-collinear gradient directions with a single b value (1000 sec/mm^2) and two images with b value of 0 sec/mm2 (referred to as b0). Geometrical parameters were: 24 slices of 0.5 mm thickness, matrix size of 128×128 and FOV of 20 mm^2). The imaging protocol was repeated 3 times for signal averaging and to compensate for acquisition where significant head motion was observed. Image analysis included DTI analysis of the DW-EPI images to produce the FA, radial, and axial diffusivity indexed maps."}}, "note": "Entries after “also recorded” stand apart in the source; their conditions may differ.", "data": [{"smiles": "CC[C@H](C)[C@H](NC(=O)[C@H](CO)NC(=O)[C@@H](NC(=O)[C@@H]1CCCN1C(=O)[C@H](C)NC(=O)[C@@H](N)CC(N)=O)C(C)C)C(=O)N1CCC[C@H]1C(=O)N[C@@H](CCC(N)=O)C(=O)O", "note": "[NAP]", "values": [{"measurement": "USV per minute, male and female groups combined", "setting": "[1]; Adnp^+/− pups, NAP daily injections, FIG. 9C", "value": "protected against this deficiency; also recorded: most significant increase"}, {"measurement": "USV per minute by sex", "setting": "[1]; Adnp^+/− pups, NAP vs saline treated littermates, increased group size, FIG. 9B", "value": "normalizing it in females; also recorded: increased vocalization in both sexes"}, {"measurement": "number of USVs produced in a minute, Adnp^+/− pups", "setting": "[1]; eight-day-old pups, daily subcutaneous NAP (25 μg/ml saline) vs saline, p=0.005", "value": "significant increase; also recorded: amelioration"}, {"measurement": "number of USVs produced in a minute, Adnp^+/+ pups", "setting": "[1]; eight-day-old pups, daily subcutaneous NAP vs saline, p=0.73", "value": "no significant treatment effect"}, {"measurement": "forelimbs muscle strength (grip force)", "setting": "[2]", "value": "significantly improving it"}, {"measurement": "general olfaction ability (AUC), males", "setting": "[3]; 2-month-old mice (n=3-4), NAP intranasal in DD, 8 weeks, two-way ANOVA p=0.046", "value": "main effect for treatment"}, {"measurement": "general olfaction ability (AUC), females", "setting": "[3]; 5-month-old mice, NAP intranasal in CB, 9 weeks, NAP vs vehicle p<0.01", "value": "significant difference"}, {"measurement": "general olfaction ability (AUC), males", "setting": "[3]; 5-month-old mice, NAP intranasal in CB, 9 weeks, NAP vs vehicle p<0.05", "value": "significant difference"}, {"measurement": "general change in olfactory behavior", "setting": "[3]; FIG. 3D-G, both sexes, CB and DD", "value": "apparently normalized"}, {"measurement": "Foxp2 expression in the tongue, females", "setting": "[4]", "value": "decreasing it"}, {"measurement": "Foxp2 expression in the tongue, males", "setting": "[4]", "value": "normalizing it"}, {"measurement": "hippocampal Chl1 expression", "setting": "[5]", "value": "also regulated by NAP"}, {"measurement": "functional activities of daily living", "setting": "[6]", "value": "protection of functional activities of daily living"}, {"measurement": "efficacy in PSP", "setting": "[7]", "value": "did not show efficacy"}, {"measurement": "increased anxiety: relative time spent in open/closed arms", "setting": "[8]", "value": "ameliorated"}, {"measurement": "hippocampal mean diffusivity (MD)", "setting": "[9]; hippocampal area −1.84 mm from Bregma", "value": "although insignificantly, was reduced"}, {"measurement": "hippocampal fractional anisotropy (FA)", "setting": "[9]; hippocampal area −2.34 mm from Bregma, p<0.05", "value": "significantly reduced"}]}]}
